In US11472788B2, “Benzoimidazoles as selective inhibitors of indoleamine 2,3-dioxygenases” (BEIGENE, LTD., priority 2017, dated 2022):

molecular target: cellular IDO1 in HeLa cells (Homo sapiens (Human), UniProt P14902); experiment: HeLa Cell-Based IDO1 Kyn (Kynurenine) Production Assay; conditions: IFN-γ induced IDO1, 48 hours incubation, Kyn absorbance at 480 nm
Experimental: HeLa Cell-Based IDO1 Kyn (Kynurenine) Production Assay:
The inhibitory activity of IDO1 inhibitors is determined by using a colorimetric reaction to measure Kyn generated from L-Trp (L-Tryptophon) oxidation by cellular IDO1 in HeLa cells after induction of IDO1 expression by IFN-γ.
Hela cells were obtained from the American Type Culture Collection and recovered in 10% FBS-containing phenol red-free DMEM medium. Cells were plated onto a 96-well plate (100 μl/well) at 8000 cells per well and kept at 37° C. in a humidified incubator supplied with 5% CO2. 4 hours later, Human recombinant IFN-γ (8901SC, CST) was added to cells (final concentration 100 ng/mL) to stimulate endogenous IDOL. Compounds at different concentrations diluted in dimethylsulfoxide (DMSO) were added simultaneously with IFN-γ and 0.4 mM L-Trp. Cells were kept at 37° C. in a humidified incubator supplied with 5% CO2. After 48 hours of incubation, 100 μl supernatant from each well was removed to a new plate. The protein in the medium was precipitated with the addition of 8 μl 6N trichloroacetic acid. The plate was incubated at 60° C. for 30 minutes and then centrifugation at 2500 rpm for 10 minutes to remove sediments. 80 μl supernatants were carefully removed to a new clean plate and added with an equal volume of 2% 4-(Dimethylamino)benzaldehyde (D2004, sigma) dissolved in glacial acetic acid. The absorbance at 480 nm wavelength derived from Kyn was measured using a PHERAstar FS plate reader (BMG LABTECH). The IC5C for each compound was derived from fitting the dose-response data to the four-parameter logistic model by using XLfit software (IDBS).

Sequence of cellular IDO1 in HeLa cells (P14902 whole entry): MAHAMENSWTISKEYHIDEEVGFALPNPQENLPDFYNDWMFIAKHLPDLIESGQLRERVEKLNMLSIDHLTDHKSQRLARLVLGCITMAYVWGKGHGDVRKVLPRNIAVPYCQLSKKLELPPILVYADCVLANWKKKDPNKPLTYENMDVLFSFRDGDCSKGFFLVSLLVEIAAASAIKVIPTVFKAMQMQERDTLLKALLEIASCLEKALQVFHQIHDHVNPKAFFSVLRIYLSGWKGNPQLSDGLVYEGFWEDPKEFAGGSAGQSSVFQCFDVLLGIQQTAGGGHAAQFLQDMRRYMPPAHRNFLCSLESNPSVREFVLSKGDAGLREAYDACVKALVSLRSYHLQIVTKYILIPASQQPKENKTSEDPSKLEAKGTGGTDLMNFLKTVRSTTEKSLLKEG

| EC50 | Compound |
| --- | --- |
| 9.1 nM | Fc1ccc2nccc(C3CCC(c4nc5cc(Br)ccc5[nH]4)CC3)c2c1 (centres unmarked) [Example C4, 4-(4-(5-bromo-1H-benzo[d]imidazol-2-yl)cyclohexyl)-6-fluoroquinoline] |
| 62.9 nM | COCCNC(=O)c1ccc2[nH]c(C(C)[C@H]3CC[C@@H](c4ccnc5ccc(F)cc54)CC3)nc2c1 (some centres unmarked) [Example B216, 2-(1-((1s,4s)-4-(6-fluoroquinolin-4-yl)cyclohexyl)ethyl)-N-(2-methoxyethyl)-1H-benzo[d]imidazole-5-carboxamide] |
| 67.7 nM | CC(c1nc2cc3c(cc2[nH]1)CCC(=O)N3)[C@H]1CC[C@@H](c2ccnc3ccc(F)cc32)CC1 (some centres unmarked) [Example B159, 2-(1-((1s,4s)-4-(6-fluoroquinolin-4-yl)cyclohexyl)ethyl)-1,5,7,8-tetrahydro-6H-imidazo[4,5-g]quinolin-6-one] |
| 86.7 nM | CC(c1nc2cc(C(=O)Nc3ccccc3)ccc2[nH]1)[C@H]1CC[C@@H](c2ccnc3ccc(F)cc32)CC1 (some centres unmarked) [Example B182, 2-(1-((1s,4s)-4-(6-fluoroquinolin-4-yl)cyclohexyl)ethyl)-N-phenyl-1H-benzo[d]imidazole-5-carboxamide] |
| 1240 nM | NC(=O)c1ccc2[nH]c([C@H]3CC[C@@H](c4ccnc5ccc(F)cc54)CC3)nc2c1 [Example C9b, 2-((1s,4s)-4-(6-fluoroquinolin-4-yl)cyclohexyl)-1H-benzo[d]imidazole-5-carboxamide] |
| 73 nM | Fc1ccc2[nH]c([C@H]3CC[C@@H](c4ccnc5ccc(F)cc54)CC3)nc2c1 [Example C5b, 6-fluoro-4-((1s,4s)-4-(5-fluoro-1H-benzo[d]imidazol-2-yl)cyclohexyl)quinoline] |
| 18.8 nM | C[C@@H](c1nc2ccc(S(C)(=O)=O)cc2[nH]1)[C@H]1CC[C@@H](c2ccnc3ccc(F)cc32)CC1 [Example B138, 6-fluoro-4-((1S,4s)-4-((R)-1-(6-(methylsulfonyl)-1H-benzo[d]imidazol-2-yl)ethyl)cyclohexyl)quinoline] |
| 18.4 nM | COC(=O)c1ccc(C(F)(F)F)c2[nH]c(C(C)[C@H]3CC[C@@H](c4ccnc5ccc(F)cc54)CC3)nc12 (some centres unmarked) [Example B207] |
| 251 nM | CC(c1nc2cc3ccccc3cc2[nH]1)[C@H]1CC[C@@H](c2ccnc3ccc(F)cc32)CC1 (some centres unmarked) [Example B166, 2-(1-((1s,4s)-4-(6-fluoroquinolin-4-yl)cyclohexyl)ethyl)-1H-naphtho[2,3-d]imidazole] |
| 24 nM | Fc1ccc2nccc(C3CCC(c4nc5cc(Cl)c(F)cc5[nH]4)CC3)c2c1 (single isomer, unassigned) [Example C1b, 4-(4-(5-chloro-6-fluoro-1H-benzo[d]imidazol-2-yl)cyclohexyl)-6-fluoroquinoline] |
| 567 nM | CC(c1nc2ccc(C(=O)O)cc2[nH]1)[C@H]1CC[C@@H](c2ccnc3ccc(F)cc32)CC1 (some centres unmarked) [Example B163, 2-(1-((1s,4s)-4-(6-fluoroquinolin-4-yl)cyclohexyl)ethyl)-1H-benzo[d]imidazole-6-carboxylic acid] |
| > 1000 nM | CC(c1nc2cc(C(=O)NCC3(O)CCC3)ccc2[nH]1)[C@H]1CC[C@@H](c2ccnc3ccc(F)cc32)CC1 (some centres unmarked) [Example B183, 2-(1-((1s,4s)-4-(6-fluoroquinolin-4-yl)cyclohexyl)ethyl)-N-((1-hydroxycyclobutyl)methyl)-1H-benzo[d]imidazole-5-carboxamide] |
| > 1000 nM | CC(c1nc2cc(C(=O)NCC3(O)CCC3)ccc2[nH]1)[C@H]1CC[C@H](c2ccnc3ccc(F)cc32)CC1 (some centres unmarked) [Example B184, 2-(1-((1r,4r)-4-(6-fluoroquinolin-4-yl)cyclohexyl)ethyl)-N-((1-hydroxycyclobutyl)methyl)-1H-benzo[d]imidazole-5-carboxamide] |
| 27.1 nM | Cc1cc(C(=O)NC2CCC2)cc2[nH]c(C(C)C3CCC(c4ccnc5ccc(F)cc45)CC3)nc12 (centres unmarked) [Example B206, N-cyclobutyl-2-(1-(4-(6-fluoroquinolin-4-yl)cyclohexyl)ethyl)-4-methyl-1H-benzo[d]imidazole-6-carboxamide] |

More lines, now with the values behind:

| Compound | EC50 |
| --- | --- |
| CCOC(=O)c1ccc2[nH]c([C@H](C)[C@H]3CC[C@@H](c4ccnc5ccc(F)cc54)CC3)nc2c1 [Example B17, ethyl 2-((R)-1-((1s,4S)-4-(6-fluoroquinolin-4-yl)cyclohexyl)ethyl)-1H-benzo[d]imidazole-5-carboxylate] | 0.58 nM |
| CC(c1nc2cc(C(=O)NC3CC3)c(F)c(F)c2[nH]1)[C@H]1CC[C@@H](c2ccnc3ccc(F)cc32)CC1 (some centres unmarked) [B192] | 8.97 nM |
| CCOC(=O)c1cc2nc([C@H](C)[C@H]3CC[C@@H](c4ccnc5ccc(F)cc54)CC3)[nH]c2cc1C [Example B201, ethyl 2-((R)-1-((1s,4S)-4-(6-fluoroquinolin-4-yl)cyclohexyl)ethyl)-6-methyl-1H-benzo[d]imidazole-5-carboxylate] | 1.6 nM |
| C[C@@H](c1nc2cc(C(=O)N(C)C)ccc2[nH]1)[C@H]1CC[C@@H](c2ccnc3ccc(F)cc32)CC1 [Example B12, 2-((R)-1-((1s,4S)-4-(6-fluoroquinolin-4-yl)cyclohexyl)ethyl)-N,N-dimethyl-1H-benzo[d]imidazole-5-carboxamide] | 46 nM |
| C[C@@H](c1nc2cc(C(=O)NC3CC3)c(F)cc2[nH]1)[C@H]1CC[C@@H](c2ccnc3ccc(F)cc32)CC1 [B158] | 6.9 nM |
| C[C@H](c1nc2ccc(C#N)cc2[nH]1)[C@H]1CC[C@@H](c2ccnc3ccc(F)cc32)CC1 [Example B8, 2-((S)-1-((1s,4R)-4-(6-fluoroquinolin-4-yl)cyclohexyl)ethyl)-1H-benzo[d]imidazole-6-carbonitrile] | 6.9 nM |
| Fc1ccc2nccc(C3CCN(Cc4nc5cc(Cl)ccc5[nH]4)CC3)c2c1 [Example A39, 4-(1-((5-chloro-1H-benzo[d]imidazol-2-yl)methyl)piperidin-4-yl)-6-fluoroquinoline] | 150 nM |
| Fc1ccc2nccc(C3CCC(Cc4nc5cc(CN6CCCCC6)ccc5[nH]4)CC3)c2c1 (centres unmarked) [Example A15, 6-fluoro-4-(4-((5-(piperidin-1-ylmethyl)-1H-benzo[d]imidazol-2-yl)methyl)cyclohexyl)quinoline] | 1950 nM |
| COC(=O)c1cccc2nc([C@@H](C)[C@H]3CC[C@@H](c4ccnc5ccc(F)cc54)CC3)[nH]c12 [B208] | > 1000 nM |
| COC(=O)c1c(F)ccc2[nH]c([C@H](C)[C@H]3CC[C@@H](c4ccnc5ccc(F)cc54)CC3)nc12 [Example B199, methyl 5-fluoro-2-((R)-1-((1s,4S)-4-(6-fluoroquinolin-4-yl)cyclohexyl)ethyl)-1H-benzo[d]imidazole-4-carboxylate] | 21.9 nM |
| Cc1cc(C(=O)NC2CCC2)cc2nc([C@@H](C)[C@H]3CC[C@@H](c4ccnc5ccc(F)cc54)CC3)[nH]c12 [B188] | 788 nM |
| C[C@@H](c1nc2ccc(NS(C)(=O)=O)cc2[nH]1)[C@H]1CC[C@@H](c2ccnc3ccc(F)cc32)CC1 [Example B136, N-(2-((R)-1-((1s,4S)-4-(6-fluoroquinolin-4-yl)cyclohexyl)ethyl)-1H-benzo[d]imidazol-6-yl)methanesulfonamide] | 296 nM |
